We go through two compounds from patent US12139508B2, “Steroid derivative regulators, method for preparing the same, and uses thereof” (JIANGSU HANSOH PHARMACEUTICAL GROUP CO., LTD., priority 2018, dated 2024).

Broadly, the MRT is the average time that molecules of a dose stay in the body. For orientation: Tmax means the time at which the peak concentration occurs.

Data set [1] relates to PTZ-induced epilepsy model in CD-1 mice. The data set is described as follows: In vivo pharmacodynamic test in the PTZ-induced epilepsy model in mice. The settings on record: dose 3 mpk p.o., PTZ 120 mg/kg s.c., 30 min observation. Here is the method:
The PTZ-induced epilepsy model in CD-1 mice was established, and the antiepileptic effect of the compounds of Example 3, Example 60, Example 61 and Example 74 was evaluated using this model.
50 male CD-1 mice were purchased from Beijing Vital River Laboratory Animal Technology Co. Ltd. The test animals were adapted at the animal room in the third building of Shanghai ChemPartner Co., Ltd for 7 days before the test. The average body weight of the animals on the test day was 32.2±0.2 grams. Feeding environment: 5 animals/cage, room temperature 23±2° C., 12/12 hours of light and dark cycle, free acess to food and water.
4.2.1 Test Equipments • 1 ml sterile disposable syringe with needle (purchased from Zhejiang Kangdelai Medical Devices Co., Ltd.) • Pipette: Eppendorf Research Plus (100-1000 L) • Vortex mixer: Kylin-Bell Vortex 5 • Ultrasonic instrument: JL-360 ultrasonic cleaner • Balance: METTLER TOLEDO™ XS204 precision balance (note: METTLER TOLEDO™ is a kind of balance used in labs and industry) • Balance: METTLER TOLEDO™ XS6002S electronic balance (note: METTLER TOLEDO™ is a kind of balance used in labs and industry) • Plexiglass box: 25 cm length*15 cm width*15 cm height with one opaque side wall, custom made by Suzhou Fengshi Laboratory Animal Equipment Co., Ltd • 3-channel timer: Oregon/Model NO.WB-388. 4.2.2 Test Animal Grouping • 1) Vehicle/PTZ: 0.5% CMC-Na+1% Tween-80 (10 ml/kg, p.o.), administered 0.5 hr before the PTZ administration; PTZ ([…], s.c.), administered before the test; • 2) 3 mg/kg of the compounds of Examples/PTZ: the compounds of Example 3, Example 60, Example 61 and Example 74 (3 mg/kg, 10 ml/kg, p.o.), administered 0.5 hr before the PTZ administration; PTZ ([…], s.c.), administered before the test. 4.3 Experimental Procedures 4.3.1 Solvent Formulation 1) 0.5% CMC-Na+1% Tween-80 (Administration Volume: 10 mL/Kg):
4.4 Adaptation to the Environment
The mice were randomly grouped, marked and weighed; 10 mice per group. The test compound was administered orally at an administration volume of 10 mL/kg 30-60 minutes before the PTZ administration.
PTZ (120 mg/kg) was administrated subcutaneously before the test observation, and this time point was recorded as the observation start point; after the administration of PTZ, the animal was immediately placed in the observation box and observed for 30 minutes, and the followings were recorded: a) the incubation period of the first clonic seizure, b) the incubation period of the first generalized tonic seizure, c) the number of clonic seizures, d) the number of generalized tonic seizures, e) the time when the animal died.
All measurement data were expressed as Mean±SEM, and analysed with Prism 6.0 statistical software.

Data set [2] is described as follows: Pharmacokinetic assay in Balb/c mice (plasma and brain tissue). The class given is in vivo. To be noted: mouse, po, 5 mg/kg p.o., male Balb/c mice; for AUC(0-t): read-out: Area under curve AUC0-t; for AUC(0-inf): read-out: Area under curve AUC0-∞; for half-life: read-out: Half-life t1/2 (converted); for MRT: read-out: Mean residence time MRT; for Tmax: read-out: Peak time tmax; for Cmax: read-out: Plasma concentration Cmax. An outline of the steps:
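Compound levels in plasma and brain were measured by LC/MS/MS with an internal standard after protein precipitation with acetonitrile. Samples came from overnight-fasted male Balb/c mice given 5 mg/kg p.o., with cardiac blood drawn at 0–24 h. Pharmacokinetic parameters were then calculated.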

Read-outs that look alike come from different tables or passages of the source.

On to `C[C@@H]1C[C@H](C(=O)Cn2ccc(C#N)n2)[C@@]2(C)CC[C@H]3[C@@H](CC[C@@H]4C[C@](C)(O)CC[C@@H]43)[C@H]12` [Example 60, 1-(2-((3R,5R,8R,9R,10S,13S,14S,15R,17S)-3-Hydroxy-3,13,15-trimethylhexadecahydro-1H-cyclopenta[a]phenanthren-17-yl)-2-oxoethyl)-1H-pyrazole-3-carbonitrile], for which, in data set [1], the “Incubation period of the clonic seizure, Mean ± SEM” value worked out at 1308.1 ± 170.1 s; the “Incubation period of the generalized tonic seizure, Mean” value is 1800.0 ± 0.0 s; the Mortality rate came to 0%; the “Number of clonic seizures, Mean” value is listed as 0.5 ± 0.2. In addition, in data set [1], the “Number of generalized tonic seizures, Mean” value amounted to 0.0 ± 0.0 and the “Time when the animal died, Mean” value was 1800.0 ± 0.0 s. In data set [2] (brain tissue), the AUC(0-t) is 2400 ng·h/mL, the AUC(0-inf) was 2500 ng·h/mL, the half-life was 2.37 h and the mean residence time (MRT) stood at 2.35 h. Besides, in data set [2] (brain tissue), the Tmax stood at 1 h and the Cmax was determined as 998 ng/mL. In data set [2] (plasma), the AUC(0-t) was determined as 1700 ng·h/mL, the AUC(0-inf) is 1770 ng·h/mL, the half-life is 1.64 h and the mean residence time (MRT) came to 1.43 h. For the same compound, in data set [2] (plasma), the Tmax turned out to be 0.5 h and the Cmax amounted to 720 ng/mL.

With `C[C@@]1(O)CC[C@H]2[C@H](CC[C@@H]3[C@@H]2CC[C@@]2(C)[C@H]3[C@@H]3C[C@@H]3[C@@H]2C(=O)Cn2ccc(C#N)n2)C1` [Example 3, 1-(2-((2R,4aS,4bR,6aS,7S,7aS,8aR,8bR,8cR,10aR)-2-hydroxy-2,6a-dimethyloctadecahydrocyclopropa[4,5]cyclopenta[1,2-a]phenanthren-7-yl)-2-oxoethyl)-1H-pyrazole-3-carbonitrile], in data set [1], the “Incubation period of the clonic seizure, Mean ± SEM” value was 902.9 ± 200.8 s; the “Incubation period of the generalized tonic seizure, Mean” value is 1736.0 ± 63.2 s; the Mortality rate worked out at 10%; the “Number of clonic seizures, Mean” value stood at 1.3 ± 0.3. In data set [1], the “Number of generalized tonic seizures, Mean” value is 0.1 ± 0.1 and the “Time when the animal died, Mean” value turned out to be 1739.8 ± 60.2 s. Further, in data set [2] (brain tissue), the AUC(0-t) was 719 ng·h/mL, the AUC(0-inf) came to 722 ng·h/mL, the half-life is 0.5 h and the MRT amounted to 1.1 h. Moreover, in data set [2] (brain tissue), the time to peak (Tmax) was 0.5 h and the Cmax was found to be 690 ng/mL. Moreover, in data set [2] (plasma), the AUC(0-t) came out at 570 ng·h/mL, the AUC(0-inf) was determined as 574 ng·h/mL, the half-life is 0.5 h and the MRT stood at 1.01 h. Moreover, in data set [2] (plasma), the time of peak concentration (Tmax) was 0.5 h and the Cmax worked out at 673 ng/mL.
